Results published in patent EP1984014B1, “USE OF TPO PEPTIDE COMPOUNDS AND PHARMACEUTICAL COMPOSITIONS IN THE TREATMENT OF ANEMIA” (Janssen Pharmaceutica NV, priority 2006, dated 2007).

Key:
[1] = test system: mice treated with carboplatin; assay: Example 2: dosing seven days before and/or 1 hour after carboplatin, hematological parameters in mice; type: in vivo, BALB/c mouse
Description: (§1) The effects of PEGylated TPO Compound No. 1 on mice treated with carboplatin were observed. For all examples herein, a 10 mg/ml stock solution of PEGylated TPO Compound No. 1 was prepared in sterile saline. For mixing, the preparation was placed on a gyratory shaker for 15min. at 200 rpm. This method was used to dissolve PEGylated TPO Compound No. 1 without foaming. The stock was filtered using a GV Millex (0.22um) filter. Dosing solutions were then prepared from this stock using sterile saline. The stock and dosing solutions were prepared fresh on the day of use.
The possibility that PEGylated TPO Compound No. 1 may sensitize bone marrow hematopoietic stem cells of mice to the toxic effects of carboplatin treatment was examined. For this study, a dose of PEGylated TPO Compound No. 1 was administered to the mice seven days prior to the carboplatin dose or immediately after carboplatin treatment. An additional group was treated with PEGylated TPO Compound No. 1 both prior to and after carboplatin administration. The effect of these dosing regimens on hematological parameters was also observed.
(§2) The groups of mice were treated with either carboplatin or vehicle (Phosphate Buffered Saline, PBS) by ip administration on Days 7 and 8 as delineated below. The optimal dose of carboplatin used to induce thrombocytopenia in the BALB/c mouse strain was previously determined to be a fractionated total dose of 120mg/kg given as two consecutive daily injections (i.e., 2x60mg/kg). Seven days prior to the first carboplatin dose or one (1) hour after the second dose of carboplatin, groups of mice were treated with PEGylated TPO Compound No. 1 (300ug/kg) or vehicle (sterile saline, SS, preservative-free 0.9% sodium chloride) by IV (bolus) injection as delineated in Table 2. An additional group was treated with PEGylated TPO Compound No. 1 both before (Day 0) and after (Day 8, t=1h) the carboplatin dose. All dosing was performed on a per-weight basis (100ul/10g body weight).
(§3) On Days 14, 18, 22 and 26, five mice in each test group were weighed and then euthanised using CO2-asphyxiation and exsanguination via cardiac puncture. The blood samples were transferred to separate EDTA (lavender-top) microcontainers for hematological evaluation. Groups of control mice (5) were processed on Days 14 and 26. The data are presented graphically as group means + SEM.

[2] = test system: mice treated with carboplatin; assay: Example 3: dosing 1 hour, 1 day or 4 days after carboplatin, anemia in mice; type: in vivo, BALB/c mouse
Description: as §1
The effect of PEGylated TPO Compound No. 1 on the duration and severity of anemia following dosing regimens in which PEGylated TPO Compound No. 1 is administered at various times following the carboplatin treatment was observed. For this study, an amount of PEGylated TPO Compound No. 1 was administered to mice, one (1) hour, one (1) day or four (4) days following a carboplatin dose.
as §2, with “-1” for “7”, “0” for “8”, “One hour (Day 0), one day (Day 1) or four” for “Seven”, “(Day 4) following” for “prior to the first carboplatin dose or one (1) hour after”, “3. The dose” for “2. An additional group”, “administered” for “treated with PEGylated TPO Compound No. 1 both before (Day 0) and after (Day 8, t=1h) the carboplatin dose. All dosing was performed”
as §3, with “6, 8, 10 & 12,” for “14, 18, 22 and 26,”, “exsanguinations” for “exsanguination”, “6 & 12.” for “14 and 26.”

[3] = test system: carboplatin-treated mice; assay: Example 4: lower doses (30, 100, 300ug/kg) as survival factor for erythrocyte lineages in carboplatin-treated mice; type: in vivo, BALB/c mouse
Description: as §1
The ability of PEGylated TPO Compound No. 1 to function as a survival factor for megakaryocyte and erythrocyte lineages in carboplatin-treated mice as determined by changes in hematological parameters was observed. […] In this study, the effect of lower doses of PEGylated TPO Compound No. 1 (i.e., 30, 100 and 300ug/kg) on the survival of erythrocyte lineages was examined to characterize the dose-response for this effect.
The groups of mice were treated with either carboplatin or vehicle (Phosphate Buffered Saline, PBS) by ip administration on Days -1 and 0 as delineated below. The optimal dose of carboplatin used to induce thrombocytopenia in the BALB/c mouse strain was previously determined to be a fractionated total dose of 120mg/kg given as two consecutive daily injections (i.e., 2x60mg/kg). Approximately one hour following the second dose of carboplatin, groups of mice were treated with PEGylated TPO Compound No. 1 or vehicle (sterile saline, SS, preservative-free 0.9% sodium chloride) by IV (bolus) injection as delineated in Table 4. The dose was administered on a per-weight basis (100ul/10g body weight).
On Days 6, 8 and 12, five mice in each test group were weighed and then euthanised using CO2-asphyxiation and exsanguinations via cardiac puncture. The blood samples were transferred to separate EDTA (lavender-top) microcontainers for hematologic evaluation. Groups of control mice (5) were processed on Days 6 & 12.

[4] = test system: carboplatin treated mice; assay: Example 6: mechanistic study, increasing carboplatin doses, platelets, hematocrit, brain fibrinogen/fibrin histology; type: in vivo
Description: as §1
For mechanistic studies, groups of mice were treated with vehicle or increasing amounts of carboplatin (i.e., 60, 70 or 80 mg/kg) for 2 consecutive days (Day -1 & Day 0). Approximately one hour following the second dose of carboplatin, groups of mice were treated with PEGylated TPO Compound No.1 (100ug/kg) or vehicle (sterile saline, SS, preservative-free 0.9% sodium chloride) by IV.(bolus) injection as delineated in Table 5.
On Day 15, the mice in all treatment groups were euthanised using CO2-asphyxiation and exsanguinations via cardiac puncture. The blood samples were transferred to separate EDTA (lavender-top) microtainers for hematologic evaluation. In addition, several organs (including the brains) of control mice and mice treated with 2x70 mg/kg carboplatin without and with co-treatment with PEGylated TPO Compound No.1 were isolated and processed for histological examination. Sections of these tissues were processed immunohistochemically for fibrinogen/fibrin.

Substance: Methoxypolyethyleneglycol20000-propionyl-L-Isoleucyl-L-Glutamyl-Glycyl-L-Prolyl-L-Threonyl-L-Leucyl-L-Arginyl-L-Glutaminyl-L-2-Naphthylalanyl-L-Leucyl-L-Alanyl-L-Alanyl-L-Arginyl-Sarcosyl-Ne-(methoxypolyethyleneglycol20000-propionyl-L-Isoleucyl-L-Glutamyl-Glycyl-L-Prolyl-L-Threonyl-L-Leucyl-L-Arginyl-L-Glutaminyl-L-2-Naphthylalanyl-L-Leucyl-L-Alanyl-L-Alanyl-L-Arginyl-Sarcosyl-)-Lysinamide [PEGylated TPO Compound No. 1]
- carboplatin-induced changes in erythrocyte parameters ([1]; 300ug/kg iv on Day 0 (only), seven days prior to carboplatin): failed to affect
- decreases in hemoglobin levels, RBC counts and hematocrits caused by carboplatin ([1]; 300ug/kg iv on Day 8 (1 hour after the second carboplatin treatment) only): prevented
- decreases in hemoglobin levels, RBC counts and hematocrits caused by carboplatin ([1]; 300ug/kg iv on Day 8 with an additional dose on Day 0): prevented
- body weight loss between Days 7 and 26 ([1]; co-treatment, all regimens, no statistical analysis): prevented this weight loss
- onset of signs (hunching, unkempt) ([1]; treatment on Day 8 without or with additional treatment on Day 0): appeared to delay the onset of these signs
- severity and duration of signs (hunching, unkempt) ([1]; treatment on Days 0 and 8): decreased the severity and duration
- time of dosing after chemotherapy at which prevention of carboplatin-induced anemia is observed ([2]; 300ug/kg iv): ≤ 24 h
- decreases in hemoglobin levels, RBC counts and hematocrits caused by carboplatin ([2]; 300ug/kg iv on Day 0 (1 hour after carboplatin treatment)): prevented
- decreases in hemoglobin levels, RBC counts and hematocrits caused by carboplatin ([2]; 300ug/kg iv on Day 1): prevented
- carboplatin-induced changes in erythrocyte parameters ([2]; 300ug/kg iv on Day 4): failed to affect
- onset, frequency or severity of signs (hunched, flaccid) ([2]; 300ug/kg iv, no detailed analysis): did not appear to have a dramatic effect
- weight loss associated with carboplatin treatment ([2]; administration on Day 0, Day 1 or Day 4, no statistical analysis): did not appear to affect the weight loss
- weight loss or recovery ([3]; 13-Day study period): did not appear to affect weight loss or recovery
- decreases in RBC counts and hematocrit induced by carboplatin treatment ([3]; 30, 100, 300ug/kg iv Day 0): effectively inhibited
- decrease in hemoglobin levels caused by carboplatin ([3]; all doses (30, 100, 300ug/kg iv Day 0, about 1 h after carboplatin), by Day 12): totally inhibited
- anemia induced by carboplatin ([3]; all doses, on Day 12): completely prevent
- altered appearance and behavior (hunched, unkempt, soft stool) ([3]; appeared to be dose-dependent): decreased the onset, frequency and severity of these signs
- small vessels in brain sections, fibrinogen/fibrin staining ([4]; 2x70mg/kg carboplatin plus 100ug/kg iv, Day 15): appeared normal or exhibited fibrinogen/fibrin staining that was only slightly darker than the control group
- microthrombotic events in brain sections ([4]; 2x70mg/kg carboplatin plus 100ug/kg iv, entire dose group): single
- survival ([4]; 2x80mg/kg carboplatin plus 100ug/kg iv, all of the mice): survived until the scheduled study termination
- thrombocytopenia or anemia ([4]; 2x80mg/kg carboplatin plus 100ug/kg iv, on Day 15): did not exhibit thrombocytopenia or anemia
- decreases in platelet and RBC counts induced by the carboplatin ([4]; carboplatin 2x60 or 2x70mg/kg, 100ug/kg iv about one hour after second carboplatin dose, Day 15): totally inhibited
- fibrinogen deposition and blood clots in brain sections ([4]; carboplatin treated mice, FIG. 19): reduces
